Here are results for three compounds from paper PMC4741576 (Oncotarget, 2015).

For one series, the system named is CXCR4. The conditions noted are these: vs. control. An excerpt: (§1) Leukemic blasts (1 × 10^6 per mouse) were then secondarily transplanted into sublethally irradiated NSG mice for treatment experiments. […] After sacrifice, cells were isolated from bone marrow, spleen, and peripheral blood; counted; and stained with anti-human FACS antibodies (CD19- FITC, CD45-PE/APC, 12G5 CXCR4-APC, 1D9 CXCR4-PE, CXCR7-PerCP, and/or CD49d-PE-Cy5).

The test system of a further series is CD49d. Briefly: CD49d surface expression in leukemic blasts from xenografted mice. It is filed as in vivo, human. The conditions noted are these: bone marrow, spleen and peripheral blood blasts, compared to control; differences not statistically significant.
Text: as §1
On the technique in general: In xenograft studies the graft and the host belong to different species.

Series [1] can be described thus: overall health of xenografted mice. The note with it: 3 consecutive days for 2 weeks; POL5551 5 mg/kg s.c., cytarabine 200 mg/kg i.p.
Text: CXCR4 antagonism has been advanced clinically in acute leukemia. Trials of plerixafor as a chemosensitizing agent have been completed in adults with relapsed/refractory and newly-diagnosed AML, [33] and children with relapsed/refractory acute leukemias. One concern about CXCR4 antagonism is that mobilized hematopoietic stem cells will become more susceptible to chemotherapy and lead to delayed blood count recovery.
as §1

Series [2] deals with infant MLL-R ALL primary samples. Kind of series: xenograft of infant MLL-R ALL, leukemic burden. Type of series: in vivo, human blasts in NSG mice.
Text: Therefore, we transplanted primary samples from infants with MLL-R ALL. […] To make our xenograft model even more aggressive, we transplanted cells that had already been passaged once through NOD/SCID/γc^null (NSG) mice in order to select for leukemia-initiating cells from the cryopreserved primary samples. We performed this experiment using 4 different infant MLL-R ALL primary samples (Figure 6A).
Mice were sacrificed at the start of week 4, or 4 days after the last treatment. […] Overall leukemic burden was quantified by averaging the percentage of blasts (human CD45+ and CD19+) detected in the bone marrow, spleen, and peripheral blood. Quantification of leukemic blasts was performed in duplicate.
Cryopreserved primary ALL cells were thawed, counted (TC10 Automated Cell Counter, BioRad, Hercules, CA), and resuspended in cold PBS. Adult NSG mice (Jackson Laboratories, Bar Harbor, ME) were sublethally irradiated (200 centiGray) 4 hours prior to the transplantation of 1 × 10^6 viable cells via tail vein injection. Mice were started on Uniprim medicated feed (Harlan Laboratories, Frederick, MD) ≥ 24 hours prior to transplantation in order to decrease opportunistic infections. Peripheral blood was collected via cheek venipuncture 4 to 6 weeks post-transplant and analyzed by FACS after staining with anti-human CD19-FITC and anti-human CD45-PE (BD Pharmingen). Leukemic blasts were defined as cells that co-expressed human CD45 and human CD19. Mice were sacrificed 2 to 4 weeks post-engraftment and leukemic cells were harvested from the spleen and bone marrow.
as §1

The subject of series [3] is acute leukemias. The note with it: several preclinical studies; cited from earlier work. An excerpt: Efforts to improve outcomes in pediatric ALL have largely been focused on factors intrinsic to the leukemic blast, such as genetic mutations or alterations in gene expression. However, it is likely that survival signals from the bone marrow microenvironment also contribute to treatment failure and relapse. As such, many groups have studied CXCR4 antagonism as a means to improve outcomes in acute leukemias. […] Our paper is ...

For another series, the system named is CXCR7. The conditions noted are these: ALL; cited from earlier work. The text has this:
(§2) CXCR7 is a second receptor for SDF-1α, [24, 25] while VLA-4 is an integrin, [26] and both are important in the interaction of leukemia cells with the bone marrow stromal microenvironment.

The test system of series [4] is acute leukemias. The conditions noted are these: cited from earlier work. An excerpt: CXCR4 antagonism has been advanced clinically in acute leukemia. Trials of plerixafor as a chemosensitizing agent have been completed in adults with relapsed/refractory and newly-diagnosed AML, [33] and children with relapsed/refractory acute leukemias. One concern about CXCR4 antagonism is that mobilized hematopoietic stem cells will become more susceptible to chemotherapy and lead to delayed blood count recovery. […] With regards to ...

Series [5] deals with surface CXCR4. The conditions noted are these: leukemic blasts; cited from earlier work.
The test system of series [6] is pediatric ALL and acute myeloid leukemia (AML). The conditions noted are these: cited from earlier work. The text has this: ALL is the most common pediatric malignancy. […] However, children and young adults with high-risk and relapsed/refractory ALL continue to have suboptimal outcomes. […] Specifically, interaction between the cell surface receptor CXCR4 ...
Series [7] deals with surface CXCR4. The note with it: leukemic blasts; cited from earlier work. The source holds these as a separate data set.
Series [8] has as its target T1, surface CXCR4 (Homo sapiens, UniProt P61073).
T1 construct: endogenous in cells; host or cells: pediatric ALL cell lines (pre-B: Nalm-6, HB-1119 and others; T cell: Jurkat, CCRF-CEM-1301 and others)
Kind of series: 12G5 anti-CXCR4 antibody binding (FACS), ALL cell lines.
Experimental: We then harvested cells and measured binding of the 12G5 anti-CXCR4 antibody, which attaches to the SDF-1α binding site of CXCR4, by FACS as a marker for surface CXCR4 expression.
12G5 anti-CXCR4 antibody binding was measured by FACS and MFI were normalized to control at each time point.
Conversely, 1D9 antibody binding is a measure of total surface CXCR4. […] At multiple time points, we measured binding to surface CXCR4 by flow cytometry using 3 anti-CXCR4 antibodies: 12G5, 1D9, and 2B11.
Cells were harvested at multiple time points, washed with ice-cold wash buffer (PBS with 0.5% bovine serum albumin, Sigma-Aldrich), stained with antibodies at manufacturer-recommended concentrations (12G5 anti-human CD184 [CXCR4]-APC, eBioscience, San Diego, CA; 12G5 anti-human CD184-PE-Cy5, BD Pharmingen, San Diego, CA; 1D9 anti-human CD184-PE, BD Pharmingen; 2B11 anti-mouse CD184-APC, eBioscience; anti-human CXCR7- PerCP, R&D Systems, Minneapolis, MN), washed, fixed with 1% paraformaldehyde (VWR, Radnor, PA), and stored at 4°C in the dark until analysis on a FACSCalibur (BD Biosciences, San Jose, CA). A live gate was drawn using FlowJo (TreeStar, Ashland, OR) according to forward/side scatter properties and used to calculate the MFI. MFI were normalized to the isotype control (IC) MFI at each time point and then normalized to the MFI:IC ratio of control-treated (0 nM) samples.

The next series concerns ERK1/2. Kind of series: SDF-1α-induced phosphorylation of ERK1/2 (PhosphoFACS). It is filed as cell-based, human. The conditions noted are these: control-treated cells, SDF-1α 75 ng/mL for 15 minutes.
Text: as §2

T1 sequence (P61073 whole entry): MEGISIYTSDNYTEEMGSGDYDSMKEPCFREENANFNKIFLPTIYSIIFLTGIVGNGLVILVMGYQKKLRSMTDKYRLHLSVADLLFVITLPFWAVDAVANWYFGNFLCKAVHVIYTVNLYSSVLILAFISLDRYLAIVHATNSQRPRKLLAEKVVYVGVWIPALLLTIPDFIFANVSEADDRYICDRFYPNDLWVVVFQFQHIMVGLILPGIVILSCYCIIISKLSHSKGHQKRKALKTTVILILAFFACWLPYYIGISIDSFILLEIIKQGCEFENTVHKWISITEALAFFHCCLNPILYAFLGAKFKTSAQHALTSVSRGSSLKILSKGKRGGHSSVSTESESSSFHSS

As for `Nc1ccn([C@@H]2O[C@H](CO)[C@@H](O)[C@@H]2O)c(=O)n1` [cytarabine], the “12G5 antibody binding in blasts from bone marrow and peripheral blood” value with CXCR4 is reported as “moderate but non-significant decrease in 12G5 antibody binding”. Besides, the “CD49d mean fluorescence index (MFI)” value in the series on CD49d is “increased”. Also, the “appearance of mice at sacrifice” value in series [1] was “thin and hunched at sacrifice”. Further, the “overall leukemic burden compared to vehicle control” value in [2] (3 consecutive days for 2 weeks, vs. vehicle control) is recorded as “significantly decreased total leukemic burden compared to vehicle control”. In [2] (average of bone marrow, spleen, peripheral blood, 4 primary samples pooled, n = 5 mice/cohort, POL5551 5 mg/kg s.c., cytarabine 200 mg/kg i.p., 3 consecutive days for 2 weeks, vehicle control 56.2%), this compound returned an overall leukemic burden of 36.7%. The “leukemic burden in bone marrow compared to vehicle control” value in series [2] (bone marrow, cytarabine 200 mg/kg i.p., vs. vehicle control) was “did not lead to a significant decrease in leukemic burden compared to vehicle control”. In series [2] (bone marrow, POL5551 5 mg/kg s.c., cytarabine 200 mg/kg i.p., 3 consecutive days for 2 weeks), the “leukemic burden, bone marrow” value is 49.5%. For the same compound, the “leukemic burden, blood” value in [2] (peripheral blood, POL5551 5 mg/kg s.c., cytarabine 200 mg/kg i.p., 3 consecutive days for 2 weeks) was 29.6%. Moreover, the “leukemic burden, spleen” value in series [2] (spleen, POL5551 5 mg/kg s.c., cytarabine 200 mg/kg i.p., 3 consecutive days for 2 weeks) is recorded as 30.8%.
With `c1cc(CN2CCCNCCNCCCNCC2)ccc1CN1CCCNCCNCCCNCC1` [plerixafor], the “in vivo sensitivity to anti-leukemic therapies” value with acute leukemias [3] was “enhances in vivo sensitivity to anti-leukemic therapies”. Further, the “surface expression of CXCR7” value with CXCR7 is given as “increase in surface expression of CXCR7”. Further, the prolonged count recovery result in the series with acute leukemias [4] (phase 1/2 trials of plerixafor) is given as “none of them reported prolonged count recovery”. Moreover, the “tolerability and efficacy as a chemosensitizing agent” value with acute leukemias [4] (phase 1/2 trials, adults with AML, children with relapsed/refractory acute leukemias) is “showed tolerability and efficacy of plerixafor as a chemosensitizing agent”. The “development of extramedullary disease after treatment” value in the series on acute leukemias [4] (plerixafor trials) is reported as “none of the aforementioned trials reported the development of extramedullary disease after treatment”. For the same compound, the “1D9 antibody binding to surface CXCR4” value in the series with surface CXCR4 [5] is on record as “increase in 1D9 antibody binding”. For the same compound, the “stromal protection and chemotherapy resistance” value in [6] was “could reverse stromal protection and chemotherapy resistance”. Moreover, the “12G5 antibody binding to surface CXCR4” value in the series on surface CXCR4 [7] is listed as “decrease in 12G5 antibody binding”. Further, the “12G5 antibody binding, potency relative to POL5551 / plerixafor” value at surface CXCR4 [8] (ALL cell lines, 48-hour time course) is given as “several-fold higher concentrations of plerixafor were needed to achieve similar levels of reduction of 12G5 antibody binding”. Moreover, at surface CXCR4 [8] (NALM-6, read-out: maximum inhibition of 12G5 antibody binding), the inhibition at 0.04 µM is approximately 20%.
Take SDF-1α: in the series on ERK1/2, the “ERK1/2 phosphorylation, effect of SDF-1α” value is recorded as “increase in phosphorylation of ERK1/2”.

Broadly, the inhibition is the drop in the measured response relative to a control, in per cent.
